Data published in PMC10108392, “Rimonabant-Based Compounds Bearing Hydrophobic Amino Acid Derivatives as Cannabinoid Receptor Subtype 1 Ligands” (ACS Medicinal Chemistry Letters, 2023).

Columns and labels:
CB1R [1] = target: T1, CB1R (Rattus norvegicus, UniProt P20272); test: Ligand stimulated [35S]GTPγS binding assay in rat brain membranes; format: biochemical; conditions: for EC50 / CB1R functional profile (agonist / antagonist / inverse agonist): rat brain membranes; for EC50: ± SEM, read-out: [35S]GTPγS stimulation EC50; for Emax: read-out: [35S]GTPγS stimulation Emax; for CB1R functional profile (agonist / antagonist / inverse agonist): from [35S]GTPγS binding
T1 construct: Crude membrane fractions were prepared from the brain; from tissue; host or cells: Wistar rat whole brain, crude membrane fraction
T1 sequence (P20272 whole entry): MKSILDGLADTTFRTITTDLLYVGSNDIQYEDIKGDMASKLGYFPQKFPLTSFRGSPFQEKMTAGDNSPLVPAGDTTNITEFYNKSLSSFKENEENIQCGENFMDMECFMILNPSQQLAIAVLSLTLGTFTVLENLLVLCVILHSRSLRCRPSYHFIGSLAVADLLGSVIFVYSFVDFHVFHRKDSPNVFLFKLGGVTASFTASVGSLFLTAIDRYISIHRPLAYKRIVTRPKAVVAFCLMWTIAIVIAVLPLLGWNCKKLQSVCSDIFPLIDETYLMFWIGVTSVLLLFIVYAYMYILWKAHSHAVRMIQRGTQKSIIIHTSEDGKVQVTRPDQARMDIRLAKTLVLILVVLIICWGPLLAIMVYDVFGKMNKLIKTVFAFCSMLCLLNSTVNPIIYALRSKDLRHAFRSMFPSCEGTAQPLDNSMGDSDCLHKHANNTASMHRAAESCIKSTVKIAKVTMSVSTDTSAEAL
Protocol: (§1) Our novel chemical compounds were tested in vitro for their binding ability, efficacy, and potency on CB1R in rat brain membrane homogenate (Table 2 and SI, Figure S1). CB1Rs are the most abundant G-protein coupled receptors in the rodent and mammalian brain; therefore, this is an appropriate model to characterize our ligands in a more physiological system.
(§2) In Vitro Biological Assays
(§3) Preparation of Brain Membrane Homogenates
Wistar rats were locally bred and handled according to the EU Directive 2010/63/EU and to the Regulations on Animal Protection (40/2013. (II. 14.) Korm. r.) of Hungary. Crude membrane fractions were prepared from the brain. Brains were quickly removed from the euthanized rats and directly put in an ice-cold 50 mM Tris-HCl buffer (pH 7.4). The collected tissue was then homogenized in 30 volumes (v/w) of an ice-cold buffer with a Braun Teflon-glass homogenizer at the highest rpm. The homogenate was centrifuged at 20,000 × g for 25 min, and the resulting pellet was suspended in the same volume of a cold buffer followed by incubation at 37 °C for 30 min to remove endogenous ligands. Centrifugation was then repeated. The final pellets were taken up in five volumes of a 50 mM Tris-HCl (pH 7.4) buffer containing 0.32 M sucrose and stored at -80 °C. Prior to the experiment, aliquots were thawed and centrifuged at 20,000 ×g for 25 min and then they were resuspended in 50 mM Tris-HCl (pH 7.4), homogenized with a Douncer, followed by the determination of the protein concentration by the method of Bradford. The membrane suspensions were immediately used either in radioligand binding experiments or in [35S]GTPγS functional assays. […]
(§4) was terminated by diluting the samples with an ice-cold wash buffer (50 mM of Tris-HCl, 2.5 mM of EGTA, 5 mM of MgCl2, 0.5% fatty acid free BSA, pH 7.4), followed by repeated washing and rapid filtration through Whatman GF/B glass fiber filters (Whatman Ltd., Maidstone, UK) pre-soaked with 0.1% polyethyleneimine (30 min before the filtration). Filtration was performed with a 24-well Brandel Cell Harvester (Gaithersburg, MD, USA). Filters were air-dried and immersed into Ultima Gold MV scintillation cocktail, and then radioactivity was measured with a TRI-CARB 2100TR liquid scintillation analyzer (Packard, Perkin Elmer, Waltham, MA, USA).
Ligand Stimulated [35S]GTPγS Binding Assay
Rat brain membranes (30 µg protein/tube), prepared as described above, were incubated with 0.05 nM of […]
mM of NaCl, 3 mM of MgCl2 and 1 mM of EGTA in a 50 mM Tris-HCl buffer (pH 7.4) for 60 min at 30 °C. Basal [35S]GTPγS binding was measured in the absence of ligands and set as 100%. Nonspecific […]
binding was determined by the addition of 10 µM unlabelled GTPγS and subtracted from total binding.
Incubation, filtration and radioactivity measurements of the samples were carried out as described above. […]
All […]
data and curves were analyzed by GraphPad Prism 5.0 (San Diego, CA, USA).

CB1R [2] = target: T1, CB1R; test: [3H]WIN55,212-2 radioligand competition binding assay in rat brain membrane homogenate; conditions: for Ki [3H]WIN55,212-2 binding: 5 nM [3H]WIN55,212-2, ± SEM, n.b. = no binding of ligands was observed; for Ki: read-out: Ki [3H]WIN55,212-2 binding, 5 nM [3H]WIN55,212-2, ± SEM, n.b. = no binding of ligands was observed
Protocol: as §1, §2, §3
Wistar rats were locally bred and handled according to the EU Directive 2010/63/EU and to the Regulations on Animal Protection (40/2013. (II. 14.) Korm. r.) of Hungary. Crude membrane fractions were prepared from the brain. Brains were quickly removed from the euthanized rats and directly put in an ice-cold 50 mM Tris-HCl buffer (pH 7.4). The collected tissue was then homogenized in 30 volumes (v/w) of an ice-cold buffer with a Braun Teflon-glass homogenizer at the highest rpm. The homogenate was centrifuged at 20,000 × g for 25 min, and the resulting pellet was suspended in the same volume of a cold buffer followed by incubation at 37 °C for 30 min to remove endogenous ligands. Centrifugation was then repeated. The final pellets were taken up in five volumes of a 50 mM Tris-HCl (pH 7.4) buffer containing 0.32 M sucrose and stored at -80 °C. Prior to the experiment, aliquots were thawed and centrifuged at 20,000 ×g for 25 min and then they were resuspended in 50 mM Tris-HCl (pH 7.4), homogenized with a Douncer, followed by the determination of the protein concentration by the method of Bradford. The membrane suspensions were immediately used either in radioligand binding experiments or in [35S]GTPγS functional assays.
Radioligand Competition Binding Assay
Binding experiments were performed at 30 °C for 60 min in a 50 mM Tris-HCl binding buffer (pH 7.4) containing 2.5 mM of EGTA, 5 mM of MgCl2 and 0.5 mg/mL of fatty acid-free BSA in plastic tubes in a total assay volume of 1 mL that contained 0.3-0.5 mg/mL of a membrane protein. Competition binding […]
ligands. […] The incubation […]
as §4, with “MA, USA). […]” for “MA, USA).”
The results of the competition binding studies are reported as means ± S.E.M. of at least three independent experiments each performed in duplicate. In competition binding studies, the inhibitory constants (Ki) were calculated from the inflection points of the displacement curves using non-linear least-square curve fitting and the Cheng-Prusoff equation, Ki= […]/(1 + [ligand]/Kd). […]

Compound | EC50 (CB1R [1]) [nM] | Ki [3H]WIN55,212-2 binding (CB1R [2]) | Ki (CB1R [2]) [nM] | Emax (CB1R [1]) [%] | CB1R functional profile (agonist / antagonist / inverse agonist) (CB1R [1])
CC(C)[C@H](NC(=O)c1cc(-n2cccc2)n(-c2ccc(Cl)cc2)n1)C(=O)O [Compound 1, RS2689-Val-OH] | 5870 ± 372 | n.b. |  |  | 
CC(C)(C)[C@H](NC(=O)c1cc(-n2cccc2)n(-c2ccc(Cl)cc2)n1)C(=O)O [Compound 2, RS2689-tLeu-OH] | 712 ± 18 | n.b. |  |  | 
Cc1c(C(=O)N[C@H](C(=O)O)C(C)C)nn(-c2ccc(Cl)cc2)c1-n1cccc1 [Compound 3, RS2691-Val-OH] | > 10000 | n.b. |  |  | 
Cc1c(C(=O)N[C@H](C(=O)O)C(C)(C)C)nn(-c2ccc(Cl)cc2)c1-n1cccc1 [Compound 4, RS2691-tLeu-OH] | 4610 ± 303 |  | 5880 ± 152 |  | 
CC(C)[C@H](NC(=O)c1cc(-n2cccc2)n(-c2ccccc2)n1)C(=O)O [Compound 5, RS2708-Val-OH] | 1650 ± 75 | n.b. |  |  | 
CC(C)(C)[C@H](NC(=O)c1cc(-n2cccc2)n(-c2ccccc2)n1)C(=O)O [Compound 6, RS2708-tLeu-OH] | 2450 ± 118 | n.b. |  |  | 
Cc1c(C(=O)N[C@H](C(=O)O)C(C)C)nn(-c2ccccc2)c1-n1cccc1 [Compound 7, RS2709-Val-OH] | 2550 ± 106 | n.b. |  |  | 
Cc1c(C(=O)N[C@H](C(=O)O)C(C)(C)C)nn(-c2ccccc2)c1-n1cccc1 [Compound 8, RS2709-tLeu-OH] | 3400 ± 118 | n.b. |  |  | 
Cc1c(C(=O)N[C@H](C(=O)O)C(C)C)nn(-c2ccc(Cl)cc2Cl)c1-n1cccc1Cl [Compound 9, RS3516-Val-OH] | 3430 ± 283 | n.b. |  |  | 
Cc1c(C(=O)N[C@H](C(=O)O)C(C)(C)C)nn(-c2ccc(Cl)cc2Cl)c1-n1cccc1Cl [Compound 10, RS3516-tLeu-OH] | 1650 ± 98 | n.b. |  |  | 
CC(C)[C@H](NC(=O)c1cc(-n2cccc2)n(-c2ccc(Cl)cc2)n1)C(N)=O [Compound 11, RS2689-Val-NH2] | 1160 ± 79 |  | 341 ± 19 |  | 
CC(C)(C)[C@H](NC(=O)c1cc(-n2cccc2)n(-c2ccc(Cl)cc2)n1)C(N)=O [Compound 12, RS2689-tLeu-NH2] |  |  | 102 ± 16 |  | 
Cc1c(C(=O)N[C@H](C(N)=O)C(C)C)nn(-c2ccc(Cl)cc2)c1-n1cccc1 [Compound 13, RS2691-Val-NH2] |  |  | 123 ± 13 |  | 
CC(C)[C@H](NC(=O)c1cc(-n2cccc2)n(-c2ccccc2)n1)C(N)=O [Compound 15, RS2708-Val-NH2] | 1230 ± 121 | n.b. |  |  | 
CC(C)(C)[C@H](NC(=O)c1cc(-n2cccc2)n(-c2ccccc2)n1)C(N)=O [Compound 16, RS2708-tLeu-NH2] | 295 ± 38 |  | 1470 ± 103 |  | 
Cc1c(C(=O)N[C@H](C(N)=O)C(C)C)nn(-c2ccccc2)c1-n1cccc1 [Compound 17, RS2709-Val-NH2] | 4240 ± 377 |  | 1060 ± 72 |  | 
COC(=O)[C@@H](NC(=O)c1nn(-c2ccc(Cl)cc2)c(-n2cccc2)c1C)C(C)C [Compound 23, RS2691-Val-OCH3] | 4870 ± 225 |  | 55 ± 5.2 |  | 
COC(=O)[C@@H](NC(=O)c1cc(-n2cccc2)n(-c2ccccc2)n1)C(C)C [Compound 25, RS2708-Val-OCH3] | 468 ± 22 |  | 1360 ± 16 |  | 
COC(=O)[C@@H](NC(=O)c1nn(-c2ccccc2)c(-n2cccc2)c1C)C(C)C [Compound 27, RS2709-Val-OCH3] | 2080 ± 129 |  | 449 ± 15 |  | 
COC(=O)[C@@H](NC(=O)c1nn(-c2ccccc2)c(-n2cccc2)c1C)C(C)(C)C [Compound 28, RS2709-tLeu-OCH3] | 1030 ± 117 |  | 369 ± 19 | 55 ± 5 | 
COC(=O)[C@@H](NC(=O)c1nn(-c2ccc(Cl)cc2Cl)c(-n2cccc2Cl)c1C)C(C)(C)C [Compound 30, RS3516-tLeu-OCH3] | 4390 ± 344 |  | 21 ± 4.4 |  | 
CNC(=O)[C@@H](NC(=O)c1cc(-n2cccc2)n(-c2ccc(Cl)cc2)n1)C(C)C [Compound 31, RS2689-Val-NHCH3] | 601 ± 21 | modest affinity | 387 ± 33 |  | weak inverse agonist
CNC(=O)[C@@H](NC(=O)c1cc(-n2cccc2)n(-c2ccc(Cl)cc2)n1)C(C)(C)C [Compound 32, RS2689-tLeu-NHCH3] | 389 ± 51 |  | 42 ± 2.9 | 120 ± 2 | agonist
CNC(=O)[C@@H](NC(=O)c1nn(-c2ccc(Cl)cc2)c(-n2cccc2)c1C)C(C)C [Compound 33, RS2691-Val-NHCH3] |  |  | 168 ± 16 |  | antagonists
CNC(=O)[C@@H](NC(=O)c1cc(-n2cccc2)n(-c2ccccc2)n1)C(C)C [Compound 35, RS2708-Val-NHCH3] | 2460 ± 240 | modest affinity | 7940 ± 266 |  | weak inverse agonist
CNC(=O)[C@@H](NC(=O)c1cc(-n2cccc2)n(-c2ccccc2)n1)C(C)(C)C [Compound 36, RS2708-tLeu-NHCH3] |  |  | 616 ± 16 |  | antagonists
CNC(=O)[C@@H](NC(=O)c1nn(-c2ccccc2)c(-n2cccc2)c1C)C(C)C [Compound 37, RS2709-Val-NHCH3] | 7080 ± 398 | modest affinity | 1060 ± 85 | 55 ± 9 | weak inverse agonist
CNC(=O)[C@@H](NC(=O)c1nn(-c2ccccc2)c(-n2cccc2)c1C)C(C)(C)C [Compound 38, RS2709-tLeu-NHCH3] |  |  | 42 ± 3.9 | 102 ± 2 | antagonists
CNC(=O)[C@@H](NC(=O)c1nn(-c2ccc(Cl)cc2Cl)c(-n2cccc2Cl)c1C)C(C)C [Compound 39, RS3516-Val-NHCH3] | 3540 ± 193 | modest affinity | 185 ± 17 |  | weak inverse agonist
